The target of test [1] is T1, Orco-Or47a (Drosophila melanogaster, UniProt P81921+Q9VNB5).
T1 sequence (Q9VNB5 1-486): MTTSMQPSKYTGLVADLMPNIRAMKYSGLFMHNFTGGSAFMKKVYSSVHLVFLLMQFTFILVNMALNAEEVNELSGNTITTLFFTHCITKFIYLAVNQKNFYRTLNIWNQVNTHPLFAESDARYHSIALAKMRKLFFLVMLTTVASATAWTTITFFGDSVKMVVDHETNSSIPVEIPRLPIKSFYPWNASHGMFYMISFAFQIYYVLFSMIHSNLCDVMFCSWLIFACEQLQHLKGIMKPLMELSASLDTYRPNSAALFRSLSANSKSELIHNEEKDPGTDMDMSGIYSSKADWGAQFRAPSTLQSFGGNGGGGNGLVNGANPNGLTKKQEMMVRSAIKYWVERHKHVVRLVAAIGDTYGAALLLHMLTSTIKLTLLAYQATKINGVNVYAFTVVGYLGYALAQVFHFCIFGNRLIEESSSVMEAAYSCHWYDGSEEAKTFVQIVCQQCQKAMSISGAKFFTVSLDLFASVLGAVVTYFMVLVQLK
T1 sequence (P81921 1-385): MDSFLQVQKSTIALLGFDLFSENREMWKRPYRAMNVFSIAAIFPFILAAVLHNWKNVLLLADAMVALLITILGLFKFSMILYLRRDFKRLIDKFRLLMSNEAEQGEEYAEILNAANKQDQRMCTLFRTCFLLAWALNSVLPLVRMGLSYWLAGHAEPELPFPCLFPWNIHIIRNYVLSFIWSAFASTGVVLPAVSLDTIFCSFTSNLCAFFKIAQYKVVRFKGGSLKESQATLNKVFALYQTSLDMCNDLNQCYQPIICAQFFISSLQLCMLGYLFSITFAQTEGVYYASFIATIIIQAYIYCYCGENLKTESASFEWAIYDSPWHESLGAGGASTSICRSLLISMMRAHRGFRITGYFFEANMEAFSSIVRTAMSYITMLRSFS
In words: Exogenous membrane protein function before drying and after drying-rehydration, Orco-Or47a stable expression cell line. The test is classed as cell-based. More on the design: remnant residues; expressed in transfected cells; host or cells: Pv11 cells (Polypedilum vanderplanki), CRIS-PITCh knock-in at the Pv.00443 locus downstream of the 121 promoter, Zeocin selection and single-cell sorting. The procedure: To assess the drought tolerance of the cell lines, the cells were dried according to the following protocol. 4×10^7 Pv11-GCaMP6f stable expression cell lines were centrifuged at 700 g for 3 minutes and the supernatant removed. The precipitated cells were suspended in a 600 mM trehalose mix of 600 mM trehalose and IPL-41 medium at a ratio of 9:1, transferred to a 2 ml flask, and incubated at 25° C. for 48 hours. After 48 hours, the obtained cells were centrifuged at 700 g for 3 minutes and the supernatant was removed. The sedimented cells were suspended in 400 μl of 600 mM trebalose mix, and 40 μl were dropped onto a 35 mm dish. The 35 mm dish was dried for 10 days under conditions of 25° C. and humidity of 10% or less.
6. Assessment of exogenous membrane protein function after drying-rehydration. Using the Orco stable expression cell line and Orco-Or47a stable expression cell line, in order to assess the function of exogenous membrane proteins before drying and after 1 hour of rehydration after drying, fluorescence intensity generated in response to stimulation with VUAA1 (Orco agonist) or pentyl acetate (ligand of Or47a) was measured in the same manner as in 3.2 above.
The fluorescence intensity was digitized from the photograph, and ΔF/F was calculated according to the following formula:
Where the summation Σi=1^n is over the n cells in the image, Fi,after means the fluorescence intensity of the cell i after adding the ligand solution, and Fi,0 means the fluorescence intensity of the cell i before adding the ligand solution.
Specifically, a fluorescence image was taken under the condition in which the excitation wavelength/fluorescence wavelength was 488 nm/525 nm. In the fluorescence intensity quantification, the cells were identified in the photographed image, and the fluorescence intensity (F) was measured for each time. The initial values of fluorescence intensity (F0) were subtracted from the measured fluorescence intensity at each time to obtain the amount of change in fluorescence (ΔF), which was then normalized by dividing by the initial value of fluorescence intensity (F0) to obtain (Δ F/F0). A number of cells n were selected from the captured image, ΔF/F0 were produced for each, and the average value (including standard deviation, SD) of the results was graphed. For example, 25 cells were selected from the captured image, ΔF/F0 for each were produced, and the averaged results (including SD) were graphed. […] The Orco-Or47a stable expression cell line before drying responded to the Orco agonist (VUAA1) and the specific ligand of Or47a, pentyl acetate.

For test [2], the target named is T1, Orco-Or47a. In words: Response of BAM-immobilized Orco-Or47a stable expression cell line. To be noted: Pv11-GCaMP6f-Orco-Or47a stable expression cell line immobilized with BAM. The class given is cell-based. On the set-up: remnant residues; expressed in transfected cells; host or cells: Pv11 cells (Polypedilum vanderplanki), CRIS-PITCh knock-in at the Pv.00443 locus downstream of the 121 promoter, Zeocin selection and single-cell sorting. From the text: 8.1 Pv11 cell immobilization. A cell membrane modifier (BAM: Biocompatible Anchor for cell Membrane) was used to fix the stable expression cell line obtained above. BAM consists of a hydrophilic PEG chain, an NHS group, and a hydrophobic oleyl group; by bringing BAM into contact with a collagen-coated dish, the NHS group binds to collagen, and the oleyl group interacts with the cell membrane through hydrophobic interactions, allowing cells to adhere. BAM (SUNBRIGHT OE-040CS, Yuka Sangyo Co., Ltd.) was dissolved in DMSO (Fujifilm Wako Pure Chemical Industries) to a concentration of 10 mM. The 10 mM BAM solution was adjusted to DPBS(-) (Thermo Fisher) to a final concentration of 100 μM, 100 μl was dropped onto a collagen 1-coated 48-well microplate (IWAKI) and incubated at 37° C. for 1 hour. The BAM solution was removed, washed once with DPBS(-) (Thermo Fisher) and five times with MilliQ, and allowed to stand still to evaporate water droplets. The Pv11 cell suspension was centrifuged at 700 g for 3 minutes, the supernatant was removed, the cell pellet was suspended in DPBS(-) (Thermo Fisher) and dropped onto a BAM-coated dish. […]
8.2 Functional confirmation of exogenous membrane proteins in fixed cells. […] Each substance was reacted with each cell in the same manner as in 3.2 above, and the fluorescence intensity was measured. […]

Where [3] appears, read: 1 hour after drying and rehydration, compared to DMSO control.

“Also recorded” adds a separate entry of the source.

In the case of `CCCCCOC(C)=O` [pentyl acetate], the “response as change in fluorescence intensity (ΔF/F0)” value at Orco-Or47a [1] (setting [3]) is listed as “significant difference in responsiveness; also recorded: fluorescence was observed”; at Orco-Or47a [1] (before drying), “responded”. Moreover, at Orco-Or47a [2], the “response (fluorescence intensity) of immobilized cells” value is listed as “responded”.
As for `CCc1ccc(NC(=O)CSc2nnc(-c3cccnc3)n2CC)cc1` [VUAA1, N-(4-ethylphenyl)-2-{[4-ethyl-5-(pyridin-3-yl)-4H-1,2,4-triazol-3-yl]sulfanyl}acetamide], the “response as change in fluorescence intensity (ΔF/F0)” value is reported as “significant difference in responsiveness; also recorded: fluorescence was observed” on Orco-Or47a [1] (setting [3]) and “responded” on Orco-Or47a [1] (before drying). At Orco-Or47a [2], the “response (fluorescence intensity) of immobilized cells” value is recorded as “responded”.
